The test system of data set [1] is carrageenan-induced paw edema. The data set can be described thus: Carrageenan-induced rat paw edema test. It counts as in vivo. The conditions noted are these: for Rat paw edema after treatment: MMF 12.5–50 mg/kg, indomethacin or celecoxib 10 mg/kg oral; for Rat paw size: individual rats 1-7. On the procedure:
The in vivo assay was performed by the rat paw edema inhibition test as previously described ([Morris, 2003]; [Winter, Risley & Nuss, 1962]). Forty-nine male adult albino rats weighing […] were obtained from the Animal Breeding Center at the College of Veterinary Medicine, King Faisal University, and were randomly divided into seven groups (n = 7/group). The animal groups included the nontreated control group, carrageenan group, and five groups receiving carrageenan and treated with either indomethacin, celecoxib, or MMF at three doses (12.5, 25, and 50 mg/kg). All rats were allowed free access to food and water. All cages were kept in controlled rooms at 25 °C and exposed to a 12-h light/dark cycle. MMF and two reference drugs, indomethacin and celecoxib, were suspended in 1% NaCMC in normal saline. A 1% carrageenan solution in normal saline was injected into the subplantar area of the right hind paw of rats. One hour before injection of carrageenan, rats were given either indomethacin or celecoxib at a dose rate of 10 mg/kg or MMF at three dose levels of 12.5, 25, and 50 mg/kg by oral administration. […] The measurements were blind to avoid measurement bias. The King Faisal University Ethics Committee (approval no. KFU-REC/2020-10-11) approved all animal experiments. Since no samples were taken from rats, there were no anesthesia procedures. The size of the hind paw was only measured in non-anesthetized rats. At the end of the experiment, all rats were euthanized according to the regulations of the King Faisal University Ethics Committee by an overdose of pentobarbital (200 mg/kg IP) and decapitation. The effect of MMF at different doses on relieving rat paw edema was compared with the control and standard NSAID-treated groups. Significant differences were determined by one-way analysis of variance (ANOVA) with Tukey’s post hoc test. All steps were implemented using GraphPad prism software (GraphPad Software, La Jolla, CA, USA).
A general note: The carrageenan paw model is a standard test of acute inflammation.

For data set [2] the following is noted: cited from earlier work.
The next data set concerns the target T1, COX-2 (Homo sapiens, UniProt P35354).
T1 construct: purchased
T1 sequence (P35354 18-604): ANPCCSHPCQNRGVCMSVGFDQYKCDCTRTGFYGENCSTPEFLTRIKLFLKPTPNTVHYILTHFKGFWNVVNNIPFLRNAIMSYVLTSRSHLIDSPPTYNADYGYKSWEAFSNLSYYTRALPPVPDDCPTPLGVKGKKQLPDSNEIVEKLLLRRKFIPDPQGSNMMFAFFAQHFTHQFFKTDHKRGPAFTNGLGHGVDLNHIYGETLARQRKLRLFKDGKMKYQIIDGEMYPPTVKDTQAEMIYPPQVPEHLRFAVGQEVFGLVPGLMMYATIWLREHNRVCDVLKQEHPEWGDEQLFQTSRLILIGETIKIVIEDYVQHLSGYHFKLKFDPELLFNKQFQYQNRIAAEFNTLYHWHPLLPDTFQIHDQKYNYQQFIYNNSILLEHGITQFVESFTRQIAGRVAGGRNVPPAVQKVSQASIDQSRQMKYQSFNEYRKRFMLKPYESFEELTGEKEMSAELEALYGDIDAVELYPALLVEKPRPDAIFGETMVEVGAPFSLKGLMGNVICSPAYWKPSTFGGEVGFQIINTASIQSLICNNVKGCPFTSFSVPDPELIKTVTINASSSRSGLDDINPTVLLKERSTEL
Kind of data set: COX inhibitor screening assay, COX-2. It counts as biochemical. On the procedure: (§1) The inhibitory effects of the drugs MMF and MPA on COX-1 and COX-2 were measured using the COX inhibitor screening assay kit and LOX inhibitor screening kit. […] Briefly, the reaction buffer (Tris–HCl buffer, pH 8.0) containing 5 mM EDTA, 2 mM phenol, and 1 µM hematin was measured into test tubes. The test drugs were dissolved in dimethyl sulfoxide and added to the tubes to final concentrations of […]. COX-1 or COX-2 was added to the test tubes and preincubated for 10 min at 37 °C. Arachidonic acid was then added, and the tubes were incubated for 2 min at 37 °C. The enzyme immunoassay was used to measure the concentration of the product prostaglandin F2α (PGF2α). The estimated values were determined after comparison to the predetermined standard curve. The IC50 was determined after three different experiments. The selectivity index was calculated from Eq. (1):
(§2) (1) Selectivity index=IC50COX−1/IC50COX−2

For the next data set, the system named is 12-LOX. The data set can be described thus: LOX inhibitor screening kit. It counts as biochemical. How it is done: The inhibitory effects of the drugs MMF and MPA on COX-1 and COX-2 were measured using the COX inhibitor screening assay kit and LOX inhibitor screening kit. The assay was performed according to the manufacturer’s directions and previously described methods ([Chowdhury et al., 2008]; [Lee et al., 2004]). Briefly, the reaction buffer (Tris–HCl buffer, pH 8.0) containing 5 mM EDTA, 2 mM phenol, and 1 µM hematin was measured into test tubes. The test drugs were dissolved in dimethyl sulfoxide and added to the tubes to final concentrations of […]. COX-1 or COX-2 was added to the test tubes and preincubated for 10 min at 37 °C. Arachidonic acid was then added, and the tubes were incubated for 2 min at 37 °C. The enzyme immunoassay was used to measure the concentration of the product prostaglandin F2α (PGF2α). The estimated values were determined after comparison to the predetermined standard curve. The IC50 was determined after three different experiments. The selectivity index was calculated from Eq. (1): […]

The target of the next data set is T2, COX-1 (Ovis aries, UniProt P05979).
T2 construct: purchased
T2 sequence (P05979 25-600): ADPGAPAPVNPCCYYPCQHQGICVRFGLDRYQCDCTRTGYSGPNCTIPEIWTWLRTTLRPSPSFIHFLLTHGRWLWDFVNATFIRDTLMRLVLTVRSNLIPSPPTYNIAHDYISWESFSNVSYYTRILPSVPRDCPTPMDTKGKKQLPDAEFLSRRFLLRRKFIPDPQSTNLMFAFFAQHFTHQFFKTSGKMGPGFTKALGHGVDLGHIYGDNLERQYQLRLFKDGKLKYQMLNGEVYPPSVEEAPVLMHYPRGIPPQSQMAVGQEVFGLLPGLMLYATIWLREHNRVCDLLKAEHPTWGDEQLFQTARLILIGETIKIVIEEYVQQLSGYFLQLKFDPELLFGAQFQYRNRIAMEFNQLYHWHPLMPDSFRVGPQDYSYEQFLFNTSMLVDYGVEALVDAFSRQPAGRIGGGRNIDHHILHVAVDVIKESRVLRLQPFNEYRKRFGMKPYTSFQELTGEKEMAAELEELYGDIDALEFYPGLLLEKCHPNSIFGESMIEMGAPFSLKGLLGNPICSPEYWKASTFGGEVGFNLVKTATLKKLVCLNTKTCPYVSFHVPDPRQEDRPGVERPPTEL
The data set can be described thus: COX inhibitor screening assay, COX-1. It counts as biochemical. How it is done: as §1, §2

Data on 4 compounds can be found in article PMC8092108, “Mycophenolate suppresses inflammation by inhibiting prostaglandin synthases: a study of molecular and experimental drug repurposing” (PeerJ, 2021).

Several values for one entry are separate records, joined by “and”; a condition that tells them apart may be missing. Equal values may be shown once. Read-outs that look alike come from different tables or passages of the source.

Take `Cc1ccc(-c2cc(C(F)(F)F)nn2-c2ccc(S(N)(=O)=O)cc2)cc1` [Celecoxib, celecoxib]: the “Rat paw edema after treatment” value in data set [1] is listed as “significantly relieved”. Besides, the Rat paw size in data set [1] (celecoxib 10 mg/kg oral, Time (h) 1) was 0.75 cm (4×) and 0.71 cm and 0.7 cm and 0.73 cm; in data set [1] (celecoxib 10 mg/kg oral, Time (h) 2) it was 0.75 cm and 0.65 cm (2×) and 0.7 cm and 0.67 cm and 0.68 cm and 0.6 cm; in data set [1] (celecoxib 10 mg/kg oral, Time (h) 3), 0.55 cm and 0.45 cm and 0.5 cm (3×) and 0.49 cm and 0.4 cm; in data set [1] (celecoxib 10 mg/kg oral, Time (h) 4), 0.5 cm (2×) and 0.48 cm and 0.45 cm (3×) and 0.4 cm; in data set [1] (celecoxib 10 mg/kg oral, Time (h) 5), 0.4 cm (3×) and 0.45 cm and 0.43 cm and 0.38 cm and 0.42 cm; in data set [1] (celecoxib 10 mg/kg oral, Time (h) 6), 0.6 cm (2×) and 0.56 cm and 0.55 cm (2×) and 0.65 cm and 0.5 cm.
On to `COc1ccc2c(c1)c(CC(=O)O)c(C)n2C(=O)c1ccc(Cl)cc1` [Indomethacin, indomethacin], for which the “Rat paw edema after treatment” value in data set [1] is on record as “significantly relieved”. The Rat paw size in data set [1] (indomethacin 10 mg/kg oral, Time (h) 1) was 0.7 cm (4×) and 0.75 cm (3×); in data set [1] (indomethacin 10 mg/kg oral, Time (h) 2) it was 0.7 cm and 0.6 cm (3×) and 0.55 cm (2×) and 0.5 cm; in data set [1] (indomethacin 10 mg/kg oral, Time (h) 3), 0.45 cm and 0.43 cm and 0.4 cm (2×) and 0.42 cm and 0.5 cm and 0.44 cm; in data set [1] (indomethacin 10 mg/kg oral, Time (h) 4), 0.35 cm and 0.38 cm and 0.4 cm (3×) and 0.39 cm and 0.37 cm; in data set [1] (indomethacin 10 mg/kg oral, Time (h) 5) it was 0.35 cm (2×) and 0.37 cm (3×) and 0.4 cm (2×); in data set [1] (indomethacin 10 mg/kg oral, Time (h) 6) it was 0.55 cm and 0.52 cm and 0.5 cm and 0.65 cm and 0.6 cm (2×) and 0.59 cm.
Usually IC50 stands for the concentration at which inhibition is half-maximal. As to `COc1c(C)c2c(c(O)c1C/C=C(\C)CCC(=O)O)C(=O)OC2` [Mycophenolic acid, mycophenolic acid], the “Time to maximum serum MPA concentration” value in data set [2] (after MMF administration, ref Park, 2011) is 60 to 90 min. Moreover, the “Clinically attainable MPA concentration” value in data set [2] (ref Margolis et al., 1999) was 1 to 10 µM. In addition, the IC50 on COX-2 worked out at 0.14 µM; in the data set with 12-LOX (printed as 5-LOX in abstract and b38, read-out: IC50 5-LOX) it was 4.49 µM; in the data set on 12-LOX (read-out: IC50 12-LOX), 4.49 µM; against COX-1 it was 4.62 µM. This compound also showed a Selectivity index at COX-2 (IC50 COX-1/IC50 COX-2) of 33.00.
Consider `O=c1c(O)c(-c2ccc(O)c(O)c2)oc2cc(O)cc(O)c12` [Quercetin], for which the IC50 with 12-LOX (read-out: IC50 12-LOX) worked out at 3.33 µM.
